Holding throughout (format): in vivo, mouse
The test system of assay [1] is LPS induced sepsis and subsequent AKI. As to the kind of experiment: Renal function assessment: serum creatinine in LPS induced AKI. Here is the method:
(§1) Experimental Design for IGF-1 and BTP-2 studies—The animal experiments involved B6 mice between 5-8 weeks of age. Most experiments involved five groups of animals: (1) healthy, (2) LPS untreated (LPS-No Tx), (3) IGF-I in vivo gene therapy one day before LPS injection (LPS+IGF-1), (4) BTP-2 16 mg/kg i.p. at the start of the study and the (5) combined therapy with IGF-I and BTP-2 (LPS-IGF-1+BTP-2). For the survival experiment, a lethal dose of LPS (25 mg/kg) was used and all of the untreated animals died by 72 hours. In the other experiments, a sublethal dose of LPS (20 mg/kg) was used.
(§2) LPS induced sepsis and subsequent AKI—Female C57BL/6 mice received a sublethal or lethal dose of LPS from E. coli (0127: B8 strain, Sigma Aldrich, St. Louis, MO, USA) in a concentration of 20 or 25 mg/kg body weight administrated in sterile PBS by intraperitoneal injection.
(§3) Treatment—In a preventive therapeutic strategy, some of the mice received an intramuscular injection of Lenti-IGF-1 24 hours before LPS injection; whereas, the calcium signaling blocker BTP-2 (16 mg/kg, Cayman Chemical) was administrated 1 hour before LPS injection. Some of the animals received a combination of Lenti-IGF-1 and BTP-2. Control group mice were injected with an equal volume of PBS.
[…] Serum creatinine (CREA) were detected by Creatinine Assay Kit (Cayman Chemicals).

A further assay concerns whole kidney tissue. As to the kind of experiment: Measurements of mRNA expression in the kidney (real-time PCR), LPS-induced AKI. As to conditions: for Orai1 gene expression: 7 days after LPS 20 mg/kg (FIG. 2E); for NGAL gene expression: 7 days after LPS (FIG. 6C); for proinflammatory cytokines gene expression (IL-1b, IL-17, IL-6, TNF-α, IL-18): 7 days after LPS (FIGS. 3A-3E). Here is the method:
as §1, §2, §3
Measurements of mRNA Expression in the Kidney—For the measurement of the mRNA expressions of whole kidney tissue, we performed real-time PCR. The relative amount of mRNA was calculated using the comparative Ct(ΔΔCt) method. All specific amplicons were normalized against GAPDH.

Another assay concerns kidney. Nature of the assay: Renal histology (CD31 and α-SMA staining, PAS staining, tubular injury score). As to conditions: for PECAM (CD-31) staining: renal sections (FIGS. 4A-4E); for α-SMA staining: renal sections (FIGS. 4F-4J). Here is the method: as §1, §2, §3
Renal Histology—After sacrificing the mice, one part of the kidney was immediately cut, fixed in a 10% neutral buffered formalin solution, embedded in paraffin, and used for histopathological examination. 10-micrometer-thick sections were cut, deparaffinized, and hydrated. All renal serial sections were incubated at 4° C. overnight with one of two antibodies; rabbit polyclonal antibody against PECAM (CD31) (Santa Cruz, MA) or rabbit polyclonal antibody against α-SMA (Abcam, MA). After washing with TBST, biotinylated goat anti-rabbit IgG (1:200, Vector Labs, Burlingame, CA) were applied to the sections for 30 min at room temperature. Sections then were incubated with Streptavidin-HRP (Vector Labs, Burlingame, CA) for 30 min at room temperature. Diaminobenzidine (DAB; Vector Labs, Burlingame, CA) was used as the chromogen and hematoxylin as the counterstain. One part of the kidney was stained with periodic acid Schiff (PAS) stain. The PAS stained sections were examined for renal morphology in an automated fashion by quantification of a glycogen specific color in the kidney tissue using ImageJ (National Institutes of Health, Bethesda, MD, USA). A minimum of 10 fields for each kidney slide were examined and scored for pathological injury. […] The average histological score for each sample was calculated. The images were captured with an Olympus BX51 microscope, 40× magnification. (Olympus, Center Valley, PA).

The next assay concerns whole lung tissues. Nature of the assay: Measurements of mRNA expression in the lungs (RT-qPCR), acute lung injury induced by LPS. As to conditions: for CD31 gene expression: lungs (FIG. 12A); for VEGF gene expression: lungs (FIG. 12B); for α-SMA gene expression: lungs (FIG. 12C); for TRPC3 gene expression: day 7 (FIG. 10B); for TRPC6 gene expression: day 7 (FIG. 10C); for Orai1 gene expression: day 7 (FIG. 10D); for NGAL expression: day 7 (FIG. 15A); for SP-D expression: day 7 (FIG. 15B); for caspase 3 expression: day 7 (FIG. 15C); for proinflammatory cytokines gene expression (IL-1, IL-6, IL-17, TNF-α, IFN-γ): day 7 (FIGS. 11A-11E); for TLR-4 gene expression: seven days after LPS (FIG. 10A). How it is done:
(§4) Acute Lung Injury Induced by LPS—Female C57BL/6 mice received a sublethal or lethal dose of LPS from Escherichia coli (0127: B8 strain, Sigma Aldrich, St. Louis, MO, USA). LPS in sterile PBS was administered intraperitoneally at 20- or 25-mg/kg body weight.
(§5) Treatment for Lung Studies-Lenti-IGF-I was administered intramuscularly 24 h before LPS injection. The TRP and ORAI calcium channel blocker BTP-2 (YM-58483 16 mg/kg, Cayman Chemical, Ann Arbor, MI, USA) was given IP 1 h before LPS injection. Some of the animals received a combination of lenti-IGF-I and BTP-2. Mice in control groups were injected with an equal volume of PBS.
Measurements of mRNA Expression in the Lungs—For the measurement of the mRNA expressions of the whole lung tissues, RT-qPCR was performed. Lung tissues were snap-frozen in liquid nitrogen. According to the manufacturer's instructions, total RNA was isolated using the RNeasy Micro Kit® (Qiagen, Valencia, CA, USA). First-strand cDNA was synthesized using the SuperScript® III Reverse Transcriptase (Life Technologies, Grand Island, NY, USA). Quantitative RT-qPCR was performed and analyzed in an Applied Biosystems 7900HT Real-Time PCR machine (Applied Biosystems, Foster City, CA). The PCR condition was 10 min at 95° C. followed by 40 cycles of 10 s at 95° C. and 15 s at 60° C. The relative amount of mRNA was calculated using the comparative Ct (DDCt) method. All specific amplicons were normalized against GAPDH. Table 2 (SEQ ID Nos:1-36) provides for a list of the primers.
Background: Quantitative PCR measures a nucleic acid by following its amplification.

A further assay relates to lung. As to the kind of experiment: Lung immunocytochemistry (CD31, α-SMA). The note with it: lung sections (FIG. 14A). How it is done:
as §4, §5
Lung Immunocytochemistry—After the mice were sacrificed, one part of the lung was immediately cut, fixed in a 10% neutral-buffered formalin solution, embedded in paraffin, and used for histopathological examination. Ten-micrometer-thick sections were cut, deparaffinized, and hydrated. All lung serial sections were incubated at 4° C. overnight with one of two antibodies: rabbit polyclonal antibody against PECAM (CD31) (Santa Cruz Biotechnology, Dallas, TX, USA) or rabbit polyclonal antibody against α-SMA (Abcam, Cambridge, MA, USA). After washing, biotinylated goat anti-rabbit IgG (1:200, Vector Labs, Burlingame, CA, USA) were applied to the sections for 30 min at room temperature. […]

The mark [2] stands for this setting: at 48 hours after LPS (FIG. 6A).

“Also recorded” adds a separate entry of the source.

`Cc1nnsc1C(=O)Nc1ccc(-n2nc(C(F)(F)F)cc2C(F)(F)F)cc1` [BTP-2, 3,5-bis(trifluoromethyl)pyrazole derivative]: the serum creatinine entry in assay [1] (setting [2]) was “normalized”. Further, in the assay with whole kidney tissue, the Orai1 gene expression result is listed as “decreased Orai1 expression to normal; also recorded: marked decrease”; the NGAL gene expression result is “improved”; the “proinflammatory cytokines gene expression (IL-1b, IL-17, IL-6, TNF-α, IL-18)” value was “decreased”. In addition, the Nf-kB gene expression result with whole kidney tissue (7 days after LPS (FIG. 2C)) is “decreased”. In addition, the CD31 gene expression result in the assay on whole kidney tissue (7 days after LPS (FIG. 5C)) is “increased”. Also, in the assay on kidney, the “PECAM (CD-31) staining” value was “improved” and the α-SMA staining entry is reported as “improved”. In the assay with whole lung tissues, the CD31 gene expression entry is “corrected”, the VEGF gene expression entry is given as “markedly increased the VEGF expression” and the α-SMA gene expression entry is “completely corrected”. Moreover, in the assay on whole lung tissues (lungs, day 7), the IFN-γ expression result is on record as “decreased; also recorded: corrected”, the IL-17 expression entry was “markedly decreased” and the TNF-α expression entry is reported as “marked decreases; also recorded: decreased”. In the assay on whole lung tissues (lungs), the TRPC3 gene expression entry is listed as “decreased; also recorded: normalized”, the TRPC6 gene expression result is reported as “decreased; also recorded: normalized”, the Orai1 gene expression entry was “significant decrease; also recorded: normalized” and the NGAL expression entry is listed as “significantly reduced the elevated NGAL expression almost to normal”. Further, in the assay with whole lung tissues (lungs), the SP-D expression result is listed as “normalized”; the “caspase 3 expression” value is listed as “corrected the elevated caspase 3 expression”; the “proinflammatory cytokines gene expression (IL-1, IL-6, IL-17, TNF-α, IFN-γ)” value was “decreased the gene expression most of the proinflammatory cytokines to normal; also recorded: remarkably suppressive”; the TLR-4 gene expression result is given as “decreased the TLR-4 gene expression to the normal level”. In addition, in the assay on whole lung tissues (lungs, day 7 (FIG. 10E)), the calcineurin gene expression result is given as “decreased; also recorded: normalized”. Besides, in the assay with whole lung tissues (lungs, day 7 (FIG. 10F)), the Nfat gene expression entry was “decreased; also recorded: normalized”. Moreover, the “immunocytochemical evaluation of CD31 (% of the area of CD31 staining)” value in the assay with lung is reported as “significantly improved”.

Turning to “IGF-I: Insulin-like Growth Factor, delivered by a lentiviral vector engineered to express IGF-I injected into skeletal muscle”, the serum creatinine entry in assay [1] (LPS i.p. day 0, measured 7 days later, IGF-I gene therapy one day prior to LPS (FIG. 1B)) is on record as “normalized”. Besides, the serum creatinine entry in assay [1] (setting [2]) was “improved”. For the same compound, in the assay with whole kidney tissue, the Orai1 gene expression entry is “decreased Orai1 expression”; the NGAL gene expression result is “improved”; the “proinflammatory cytokines gene expression (IL-1b, IL-17, IL-6, TNF-α, IL-18)” value is recorded as “decreased”. Besides, in the assay on kidney, the “PECAM (CD-31) staining” value was “improved” and the α-SMA staining result is “improved”. In the assay on whole lung tissues, the CD31 gene expression entry is reported as “corrected”, the VEGF gene expression result is listed as “did not affect the VEGF expression” and the α-SMA gene expression entry is “did not indicate such beneficial effects”. In the assay with whole lung tissues (lungs, day 7), the IFN-γ expression result was “decreased; also recorded: corrected”, the IL-6 expression entry is “markedly decrease”, the IL-17 expression result is listed as “markedly decreased” and the TNF-α expression result is on record as “marked decreases; also recorded: decreased”. Moreover, in the assay with whole lung tissues (lungs), the TRPC3 gene expression entry is “decreased; also recorded: significant decrease”, the TRPC6 gene expression result is “decreased; also recorded: significant decrease”, the Orai1 gene expression result is given as “decreased; also recorded: significant decrease” and the NGAL expression result is given as “significantly reduced the elevated NGAL expression almost to normal”. In the assay on whole lung tissues (lungs), the SP-D expression entry is “normalized”; the “caspase 3 expression” value is given as “corrected the elevated caspase 3 expression”; the “proinflammatory cytokines gene expression (IL-1, IL-6, IL-17, TNF-α, IFN-γ)” value is “decreased the gene expression most of the proinflammatory cytokines to normal; also recorded: remarkably suppressive; also recorded: as effective as BTP-2”; the TLR-4 gene expression entry is “decreased the TLR-4 gene expression to the normal level”. In the assay with lung, the “immunocytochemical evaluation of CD31 (% of the area of CD31 staining)” value is “significantly improved”.
